Data from ChEMBL document CHEMBL2016565, “Cellular uptake of covalent conjugates of oligonucleotide with membrane-modifying peptide, peptaibol” (Bioorg Med Chem, 2012).
Active and inactive are the calls of the source. The rule behind the calls is not given here.

Tests used:
A549 [1] = test: Cytotoxicity against human A549 cells assessed as cytoplasmic LDH release at 5 uM after 2 to 24 hrs by spectrophotometry; format: cell-based; conditions: a549, 5 µM
A549 [2] = test: Drug uptake in human A549 cells assessed as increase in fluorescence intensity at 1 uM after 24 hrs by fluorescence analysis using fluorescein labelled compound relative to oligonucleotide treated control; format: ADME, cell-based; conditions: a549, 24 h
A549 [3] = test: Drug uptake in human A549 cells assessed as increase in fluorescence intensity at 1 uM after 8 hrs by fluorescence analysis using fluorescein labelled compound relative to oligonucleotide treated control; format: ADME, cell-based; conditions: a549, 8 h
A549 [4] = test: Antisense activity in human A549 cells assessed as down regulation of p53 protein at 1 uM incubated for 8 hrs in serum-free medium followed by 24 hrs incubation in serum-containing medium by Western blotting analysis; format: functional, cell-based
A549 [5] = test: Drug uptake in human A549 cells assessed as increase in fluorescence intensity at 1 uM after 2 hrs by fluorescence analysis using fluorescein labelled compound relative to oligonucleotide treated control; format: ADME, cell-based; conditions: a549, 2 h
A549 [6] = test: Drug uptake in human A549 cells after 24 hrs by confocal laser-scanning microscopy; format: ADME, cell-based; conditions: a549, 24 h
A549 [7] = test: Drug uptake in human A549 cells at 1 to 4 uM by confocal laser-scanning microscopy; format: ADME, cell-based; conditions: a549, 4 µM
A549 [8] = test: Antisense activity in human A549 cells assessed as down regulation of p53 protein at 5 uM incubated for 8 hrs in serum-free medium followed by 24 hrs incubation in serum-containing medium by Western blotting analysis; format: functional
A549 [9] = test: Drug uptake in human A549 cells assessed as increase in fluorescence intensity at 1 uM after 24 hrs by fluorescence analysis relative to control; format: ADME, cell-based; conditions: a549, 24 h

| SMILES | Activity (A549 [1]) | fold change (FC) (A549 [2]) | fold change (FC) (A549 [3]) | Activity (A549 [4]) | fold change (FC) (A549 [5]) | Drug uptake (A549 [6]) | Drug uptake (A549 [7]; TDE = time-dependent effect) | Activity (A549 [8]) [%] | Drug uptake (A549 [7]) | Drug uptake (A549 [9]) |
| --- | --- | --- | --- | --- | --- | --- | --- | --- | --- | --- |
| CC[C@H](C)[C@H](NC(=O)[C@H](CC(N)=O)NC(=O)C(C)(C)NC(C)=O)C(=O)N[C@H](C(=O)NC(C)(C)C(=O)N1CCC[C@H]1C(=O)N[C@@H](CC(C)C)C(=O)N[C@@H](CC(C)C)C(=O)NC(C)(C)C(=O)N1CCC[C@H]1C(=O)N[C@H](C(=O)N[C@@H](CSC1CC(=O)N(CCCCCC(=O)NCCCCCCOP(=O)(O)OC[C@H]2O[C@@H](n3ccc(N)nc3=O)C[C@@H]2OP(O)(=S)OC[C@H]2O[C@@H](n3ccc(N)nc3=O)C[C@@H]2OP(O)(=S)OC[C@H]2O[C@@H](n3ccc(N)nc3=O)C[C@@H]2OP(O)(=S)OC[C@H]2O[C@@H](n3cc(C)c(=O)[nH]c3=O)C[C@@H]2OP(O)(=S)OC[C@H]2O[C@@H](n3cnc4c(=O)[nH]c(N)nc43)C[C@@H]2OP(O)(=S)OC[C@H]2O[C@@H](n3ccc(N)nc3=O)C[C@@H]2OP(O)(=S)OC[C@H]2O[C@@H](n3cc(C)c(=O)[nH]c3=O)C[C@@H]2OP(O)(=S)OC[C@H]2O[C@@H](n3ccc(N)nc3=O)C[C@@H]2OP(O)(=S)OC[C@H]2O[C@@H](n3ccc(N)nc3=O)C[C@@H]2OP(O)(=S)OC[C@H]2O[C@@H](n3ccc(N)nc3=O)C[C@@H]2OP(O)(=S)OC[C@H]2O[C@@H](n3ccc(N)nc3=O)C[C@@H]2OP(O)(=S)OC[C@H]2O[C@@H](n3ccc(N)nc3=O)C[C@@H]2OP(O)(=S)OC[C@H]2O[C@@H](n3ccc(N)nc3=O)C[C@@H]2OP(O)(=S)OC[C@H]2O[C@@H](n3cc(C)c(=O)[nH]c3=O)C[C@@H]2OP(O)(=S)OC[C@H]2O[C@@H](n3cnc4c(=O)[nH]c(N)nc43)C[C@@H]2OP(O)(=S)OC[C@H]2O[C@@H](n3cnc4c(=O)[nH]c(N)nc43)C[C@@H]2OP(O)(=S)OC[C@H]2O[C@@H](n3ccc(N)nc3=O)C[C@@H]2OP(O)(=S)OC[C@H]2O[C@@H](n3cc(C)c(=O)[nH]c3=O)C[C@@H]2OP(O)(=S)OC[C@H]2O[C@@H](n3ccc(N)nc3=O)C[C@@H]2OP(O)(=S)OC[C@H]2O[C@@H](n3ccc(N)nc3=O)C[C@@H]2O)C1=O)C(N)=O)[C@@H](C)CC)[C@@H](C)CC (some centres undefined) | Non-toxic | 14 | 7 | inactive | 4 | Dose-dependent effect | tde | 50 | – | – |
| Nc1ccn([C@H]2C[C@H](OP(O)(=S)OC[C@H]3O[C@@H](n4cnc5c(N)ncnc54)C[C@@H]3OP(O)(=S)OC[C@H]3O[C@@H](n4cnc5c(=O)[nH]c(N)nc54)C[C@@H]3OP(O)(=S)OC[C@H]3O[C@@H](n4cnc5c(=O)[nH]c(N)nc54)C[C@@H]3OP(O)(=S)OC[C@H]3O[C@@H](n4cnc5c(=O)[nH]c(N)nc54)C[C@@H]3OP(O)(=S)OC[C@H]3O[C@@H](n4cnc5c(=O)[nH]c(N)nc54)C[C@@H]3OP(O)(=S)OC[C@H]3O[C@@H](n4cnc5c(=O)[nH]c(N)nc54)C[C@@H]3OP(O)(=S)OC[C@H]3O[C@@H](n4cnc5c(=O)[nH]c(N)nc54)C[C@@H]3OP(O)(=S)OC[C@H]3O[C@@H](n4cnc5c(N)ncnc54)C[C@@H]3OP(O)(=S)OC[C@H]3O[C@@H](n4cnc5c(=O)[nH]c(N)nc54)C[C@@H]3OP(O)(=S)OC[C@H]3O[C@@H](n4ccc(N)nc4=O)C[C@@H]3OP(O)(=S)OC[C@H]3O[C@@H](n4cnc5c(N)ncnc54)C[C@@H]3OP(O)(=S)OC[C@H]3O[C@@H](n4cnc5c(=O)[nH]c(N)nc54)C[C@@H]3OP(O)(=S)OC[C@H]3O[C@@H](n4cnc5c(=O)[nH]c(N)nc54)C[C@@H]3OP(O)(=S)OC[C@H]3O[C@@H](n4cnc5c(=O)[nH]c(N)nc54)C[C@@H]3O)[C@@H](COP(O)(=S)O[C@H]3C[C@H](n4ccc(N)nc4=O)O[C@@H]3COP(O)(=S)O[C@H]3C[C@H](n4cnc5c(=O)[nH]c(N)nc54)O[C@@H]3COP(O)(=S)O[C@H]3C[C@H](n4cnc5c(N)ncnc54)O[C@@H]3COP(O)(=S)O[C@H]3C[C@H](n4cnc5c(=O)[nH]c(N)nc54)O[C@@H]3COP(O)(=S)O[C@H]3C[C@H](n4cnc5c(=O)[nH]c(N)nc54)O[C@@H]3CO)O2)c(=O)n1 (some centres undefined) | – | – | – | – | – | Not Active | – | – | Not Active | – |
| CC[C@H](C)[C@H](NC(=O)[C@H](CC(N)=O)NC(=O)C(C)(C)NC(C)=O)C(=O)N[C@H](C(=O)NC(C)(C)C(=O)N1CCC[C@H]1C(=O)N[C@@H](CC(C)C)C(=O)N[C@@H](CC(C)C)C(=O)NC(C)(C)C(=O)N1CCC[C@H]1C(=O)N[C@H](C(=O)N[C@@H](CSC1CC(=O)N(CCCCCC(=O)NCCCCCCOP(=O)(O)OC[C@H]2O[C@@H](n3cnc4c(=O)[nH]c(N)nc43)C[C@@H]2OP(O)(=S)OC[C@H]2O[C@@H](n3cnc4c(=O)[nH]c(N)nc43)C[C@@H]2OP(O)(=S)OC[C@H]2O[C@@H](n3cnc4c(N)ncnc43)C[C@@H]2OP(O)(=S)OC[C@H]2O[C@@H](n3cnc4c(=O)[nH]c(N)nc43)C[C@@H]2OP(O)(=S)OC[C@H]2O[C@@H](n3ccc(N)nc3=O)C[C@@H]2OP(O)(=S)OC[C@H]2O[C@@H](n3ccc(N)nc3=O)C[C@@H]2OP(O)(=S)OC[C@H]2O[C@@H](n3cnc4c(N)ncnc43)C[C@@H]2OP(O)(=S)OC[C@H]2O[C@@H](n3cnc4c(=O)[nH]c(N)nc43)C[C@@H]2OP(O)(=S)OC[C@H]2O[C@@H](n3cnc4c(=O)[nH]c(N)nc43)C[C@@H]2OP(O)(=S)OC[C@H]2O[C@@H](n3cnc4c(=O)[nH]c(N)nc43)C[C@@H]2OP(O)(=S)OC[C@H]2O[C@@H](n3cnc4c(=O)[nH]c(N)nc43)C[C@@H]2OP(O)(=S)OC[C@H]2O[C@@H](n3cnc4c(=O)[nH]c(N)nc43)C[C@@H]2OP(O)(=S)OC[C@H]2O[C@@H](n3cnc4c(=O)[nH]c(N)nc43)C[C@@H]2OP(O)(=S)OC[C@H]2O[C@@H](n3cnc4c(N)ncnc43)C[C@@H]2OP(O)(=S)OC[C@H]2O[C@@H](n3cnc4c(=O)[nH]c(N)nc43)C[C@@H]2OP(O)(=S)OC[C@H]2O[C@@H](n3ccc(N)nc3=O)C[C@@H]2OP(O)(=S)OC[C@H]2O[C@@H](n3cnc4c(N)ncnc43)C[C@@H]2OP(O)(=S)OC[C@H]2O[C@@H](n3cnc4c(=O)[nH]c(N)nc43)C[C@@H]2OP(O)(=S)OC[C@H]2O[C@@H](n3cnc4c(=O)[nH]c(N)nc43)C[C@@H]2OP(O)(=S)OC[C@H]2O[C@@H](n3cnc4c(=O)[nH]c(N)nc43)C[C@@H]2O)C1=O)C(N)=O)[C@@H](C)CC)[C@@H](C)CC (some centres undefined) | – | – | – | – | – | – | – | – | – | Not Active |
| CC[C@H](C)[C@H](NC(=O)[C@H](CC(N)=O)NC(=O)C(C)(C)NC(C)=O)C(=O)N[C@H](C(=O)NC(C)(C)C(=O)N1CCC[C@H]1C(=O)N[C@@H](CC(C)C)C(=O)N[C@@H](CC(C)C)C(=O)NC(C)(C)C(=O)N1CCC[C@H]1C(=O)N[C@H](C(=O)N[C@@H](CSSCCCCCCOP(=O)(O)OC[C@H]1O[C@@H](n2ccc(N)nc2=O)C[C@@H]1OP(O)(=S)OC[C@H]1O[C@@H](n2ccc(N)nc2=O)C[C@@H]1OP(O)(=S)OC[C@H]1O[C@@H](n2ccc(N)nc2=O)C[C@@H]1OP(O)(=S)OC[C@H]1O[C@@H](n2cc(C)c(=O)[nH]c2=O)C[C@@H]1OP(O)(=S)OC[C@H]1O[C@@H](n2cnc3c(=O)[nH]c(N)nc32)C[C@@H]1OP(O)(=S)OC[C@H]1O[C@@H](n2ccc(N)nc2=O)C[C@@H]1OP(O)(=S)OC[C@H]1O[C@@H](n2cc(C)c(=O)[nH]c2=O)C[C@@H]1OP(O)(=S)OC[C@H]1O[C@@H](n2ccc(N)nc2=O)C[C@@H]1OP(O)(=S)OC[C@H]1O[C@@H](n2ccc(N)nc2=O)C[C@@H]1OP(O)(=S)OC[C@H]1O[C@@H](n2ccc(N)nc2=O)C[C@@H]1OP(O)(=S)OC[C@H]1O[C@@H](n2ccc(N)nc2=O)C[C@@H]1OP(O)(=S)OC[C@H]1O[C@@H](n2ccc(N)nc2=O)C[C@@H]1OP(O)(=S)OC[C@H]1O[C@@H](n2ccc(N)nc2=O)C[C@@H]1OP(O)(=S)OC[C@H]1O[C@@H](n2cc(C)c(=O)[nH]c2=O)C[C@@H]1OP(O)(=S)OC[C@H]1O[C@@H](n2cnc3c(=O)[nH]c(N)nc32)C[C@@H]1OP(O)(=S)OC[C@H]1O[C@@H](n2cnc3c(=O)[nH]c(N)nc32)C[C@@H]1OP(O)(=S)OC[C@H]1O[C@@H](n2ccc(N)nc2=O)C[C@@H]1OP(O)(=S)OC[C@H]1O[C@@H](n2cc(C)c(=O)[nH]c2=O)C[C@@H]1OP(O)(=S)OC[C@H]1O[C@@H](n2ccc(N)nc2=O)C[C@@H]1OP(O)(=S)OC[C@H]1O[C@@H](n2ccc(N)nc2=O)C[C@@H]1O)C(N)=O)[C@@H](C)CC)[C@@H](C)CC (some centres undefined) | Non-toxic | – | – | inactive | – | – | – | 20 | – | – |
